This experiment addresses human A2A receptor (A2AR) (Homo sapiens (Human), UniProt P29274). In words: Luciferase reporter assay (HEK293-A2AR-luc2p/CRE/Hygro cells). Format: cell-based. As to conditions: 3 nM CGS21680, 5 h incubation. Here is the method: HEK293 cells were maintained in Dulbecco's modified Eagle's medium (DMEM, Gibco) supplemented with 10% fetal bovine serum (FBS, Thermo Scientific), 100 units/mL penicillin (Gibco), and 0.1 mg/mL streptomycin (Gibco) in a humidified 37° C. environment with 5% CO2. Plasmid encoding wild-type human A2A receptor (A2AR) (in pcDNA3.1) was synthesized by Genscript (Nanjing, China). Transfection of the plasmids was performed in 6-well plates with 4×10^5 cells using Lipofectamin 2000 (ThermoFisher Scientific) according to the instruction of the manufacturer. Cell clones that stably express A2AR were established and maintained in the same complete medium as the HEK293 cells in addition of G-418 (Gibico). Expression level of A2AR in each single cell clone was determined using immunoblotting and FACS method. HEK293-A2AR stable cells were then transfected with pGL4.29[luc2P/CRE/Hygro] (Promega) luciferase reporter plasmid for establishing the HEK293-A2AR-luc2p/CRE/Hygro stable cell line.
HEK293-A2AR-luc2p/CRE/Hygro cells were seeded at a density of 5,000 cells/well in DMEM with 1% FBS and 1 U/mL adenosine deaminase (ADA) (Sigma). After 18 h, the cells were treated with 3 nM CGS21680 plus a series dilution of A2AR antagonist, the compounds disclosed herein at the concentration of 0.1˜10000 nM, prepared in DMEM with 1% FBS. After 5 h incubation, the luciferase activity in cells were measured using the Bright-Glo Luciferase Assay System (Promega) according to manufacturer's instructions. The luminescence signal was measured using a PHERAstar FS plate reader (BMG Labtech). […] Maximal luminescence intensity was determined in the presence of 3 nM CGS21680 and was set as 100%. The IC50 value was calculated from a dose dependent inhibition curve across the range of compound concentrations.
In general terms: Reporter assays use an easily measured gene product as a stand-in for the process of interest.
Sequence of human A2A receptor (A2AR) (P29274 whole entry): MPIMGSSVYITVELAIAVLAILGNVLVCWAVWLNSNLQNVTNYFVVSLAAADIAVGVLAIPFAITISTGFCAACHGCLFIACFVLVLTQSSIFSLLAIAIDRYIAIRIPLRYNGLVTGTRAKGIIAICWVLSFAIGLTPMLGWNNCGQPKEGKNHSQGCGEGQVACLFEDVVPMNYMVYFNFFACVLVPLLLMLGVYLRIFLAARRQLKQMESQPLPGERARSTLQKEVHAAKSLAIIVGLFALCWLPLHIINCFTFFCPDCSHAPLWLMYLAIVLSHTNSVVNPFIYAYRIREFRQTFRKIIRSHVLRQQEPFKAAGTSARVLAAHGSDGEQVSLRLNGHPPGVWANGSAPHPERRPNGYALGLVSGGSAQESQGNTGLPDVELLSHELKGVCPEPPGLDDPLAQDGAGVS
`NC(=O)C(c1ccccc1)n1ncc2c1nc(N)n1nc(-c3ccco3)nc21` (centres unmarked) [Example 19, 2-(5-amino-2-(furan-2-yl)-7H-pyrazolo[4,3-e][1,2,4]triazolo[1,5-c]pyrimidin-7-yl)-2-phenylacetamide] yielded an IC50 of 4.5 nM. The value for `COc1ccccc1C(C)(C(=O)N[C@H]1CC[C@@H](O)CC1)n1ncc2c1nc(N)n1nc(-c3ccco3)nc21` (relative stereo) [Example 139, 2-(5-amino-2-(furan-2-yl)-7H-pyrazolo[4,3-e][1,2,4]triazolo[1,5-c]pyrimidin-7-yl)-N-((cis)-4-hydroxycyclohexyl)-2-(2-methoxyphenyl)propanamide] was 1.9 nM; that for `CC(C(=O)NCC1CCOCC1)(c1ccccc1)n1ncc2c1nc(N)n1nc(-c3ccco3)nc21` (centres unmarked) [Example 97, 2-(5-amino-2-(furan-2-yl)-7H-pyrazolo[4,3-e][1,2,4]triazolo[1,5-c]pyrimidin-7-yl)-2-phenyl-N-((tetrahydro-2H-pyran-4-yl)methyl)propenamide] was 10.4 nM; that for `CC(C(=O)NC1(CO)CC1)(c1ccccc1)n1ncc2c1nc(N)n1nc(-c3ccco3)nc21` (centres unmarked) [Example 37, 2-(5-amino-2-(furan-2-yl)-7H-pyrazolo[4,3-e][1,2,4]triazolo[1,5-c]pyrimidin-7-yl)-N-(1-(hydroxymethyl)cyclopropyl)-2-phenylpropanamide] was 500 nM.

The molecule `C[C@](C(=O)NC1CCC(=O)CC1)(c1ccccc1)n1ncc2c1nc(N)n1nc(-c3ccco3)nc21` [Example 128B, (R)-2-(5-amino-2-(furan-2-yl)-7H-pyrazolo[4,3-e][1,2,4]triazolo[1,5-c]pyrimidin-7-yl)-N-(4-oxocyclohexyl)-2-phenylpropanamide] gave an IC50 of 7.6 nM. Next, `COc1cccc(CNC(=O)[C@@](C)(c2ccccc2)n2ncc3c2nc(N)n2nc(-c4ccco4)nc32)n1` [Example 112B, (R)-2-(5-amino-2-(furan-2-yl)-7H-pyrazolo[4,3-e][1,2,4]triazolo[1,5-c]pyrimidin-7-yl)-N-((6-methoxypyridin-2-yl)methyl)-2-phenylpropanamide]: 1.2 nM; `CCNC(=O)C(c1ccccc1)n1ncc2c1nc(N)n1nc(-c3ccco3)nc21` (centres unmarked) [Example 5, 2-(5-amino-2-(furan-2-yl)-7H-pyrazolo[4,3-e][1,2,4]triazolo[1,5-c]pyrimidin-7-yl)-N-ethyl-2-phenylacetamide]: 7 nM; `CC1(O)CCC(NC(=O)[C@@](C)(c2ccccc2)n2ncc3c2nc(N)n2nc(-c4ccco4)nc32)CC1` (stereo in doubt) [Example 33B, (R)-2-(5-amino-2-(furan-2-yl)-7H-pyrazolo[4,3-e][1,2,4]triazolo[1,5-c]pyrimidin-7-yl)-(trans)-N-(4-hydroxy-4-methylcyclohexyl)-2-phenylpropanamide]: 2.3 nM. Next, `CC(C(=O)NC1CCC(=O)CC1)(c1ccccc1)n1ncc2c1nc(N)n1nc(-c3ccco3)nc21` (centres unmarked) [Example 128, 2-(5-amino-2-(furan-2-yl)-7H-pyrazolo[4,3-e][1,2,4]triazolo[1,5-c]pyrimidin-7-yl)-N-(4-oxocyclohexyl)-2-phenylpropanamide]: 12.8 nM; `CC(C(=O)NCC1(O)CCCCC1)(c1ccccc1)n1ncc2c1nc(N)n1nc(-c3ccco3)nc21` (centres unmarked) [Example 72, 2-(5-amino-2-(furan-2-yl)-7H-pyrazolo[4,3-e][1,2,4]triazolo[1,5-c]pyrimidin-7-yl)-N-((1-hydroxycyclohexyl)methyl)-2-phenylpropanamide]: 7.8 nM.

The molecule `Nc1nc2c(cnn2C(C(=O)NCC2(O)COC2)c2ccccc2)c2nc(-c3ccco3)nn12` (centres unmarked) [Example 82, 2-(5-amino-2-(furan-2-yl)-7H-pyrazolo[4,3-e][1,2,4]triazolo[1,5-c]pyrimidin-7-yl)-N-((3-hydroxyoxetan-3-yl)methyl)-2-phenylacetamide] yielded an IC50 of 4.5 nM.

In general, IC50 refers to the point on the concentration scale where inhibition reaches its midpoint.

(Values after patent publication US11472811B2, “Pyrazolotriazolopyrimidine derivatives as A2A receptor antagonist” (BEIGENE, LTD., priority 2018, dated 2022).)
